# Laboratory results reported in US7153849B2, “Antidepressant arylpiperazine derivatives of hetrocycle-fused benzodioxans” (Wyeth, priority 2002, dated 2006).
# What was measured:
# serotonin transporter = molecular target: T1, serotonin transporter (Rattus norvegicus, UniProt P31652); experiment: 3H-paroxetine displacement from rat frontal cortical membranes (serotonin transporter affinity); format: binding; details: 3H-paroxetine, male rat frontal cortical membranes; for Ki: read-out: 5-HT Transporter Affinity Ki
# T1 construct: displace ^3H-paroxetine from male rat frontal cortical membranes; from tissue; host or cells: male rat frontal cortical membranes
# T1 sequence (P31652 whole entry): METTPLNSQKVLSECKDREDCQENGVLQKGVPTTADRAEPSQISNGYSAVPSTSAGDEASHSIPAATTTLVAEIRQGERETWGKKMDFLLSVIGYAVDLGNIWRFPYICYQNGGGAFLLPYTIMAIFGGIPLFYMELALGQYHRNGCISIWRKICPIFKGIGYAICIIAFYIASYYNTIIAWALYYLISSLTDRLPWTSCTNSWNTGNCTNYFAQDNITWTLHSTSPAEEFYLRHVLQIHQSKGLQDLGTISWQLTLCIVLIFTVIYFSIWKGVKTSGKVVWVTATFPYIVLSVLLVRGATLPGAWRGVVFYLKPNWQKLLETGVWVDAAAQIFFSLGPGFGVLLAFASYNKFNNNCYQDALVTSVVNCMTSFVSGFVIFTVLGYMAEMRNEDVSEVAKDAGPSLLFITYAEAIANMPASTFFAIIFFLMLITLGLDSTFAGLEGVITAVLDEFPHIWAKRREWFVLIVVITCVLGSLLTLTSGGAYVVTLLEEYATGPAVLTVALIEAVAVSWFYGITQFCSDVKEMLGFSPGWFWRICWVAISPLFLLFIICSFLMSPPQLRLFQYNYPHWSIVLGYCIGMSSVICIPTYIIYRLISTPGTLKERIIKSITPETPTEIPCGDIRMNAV
# human 5HT1A receptors = molecular target: T2, human 5HT1A receptors (Homo sapiens, UniProt P08908); experiment: [3H] 8-OH-DPAT displacement from 5HT1A receptor in stably transfected CHO cells; format: binding; details: CHO cells with human 5HT1A; for Ki: read-out: 5HT1A Receptor Affinity Ki
# T2 construct: expressed in transfected cells; host or cells: CHO cells
# T2 sequence (P08908 1-422): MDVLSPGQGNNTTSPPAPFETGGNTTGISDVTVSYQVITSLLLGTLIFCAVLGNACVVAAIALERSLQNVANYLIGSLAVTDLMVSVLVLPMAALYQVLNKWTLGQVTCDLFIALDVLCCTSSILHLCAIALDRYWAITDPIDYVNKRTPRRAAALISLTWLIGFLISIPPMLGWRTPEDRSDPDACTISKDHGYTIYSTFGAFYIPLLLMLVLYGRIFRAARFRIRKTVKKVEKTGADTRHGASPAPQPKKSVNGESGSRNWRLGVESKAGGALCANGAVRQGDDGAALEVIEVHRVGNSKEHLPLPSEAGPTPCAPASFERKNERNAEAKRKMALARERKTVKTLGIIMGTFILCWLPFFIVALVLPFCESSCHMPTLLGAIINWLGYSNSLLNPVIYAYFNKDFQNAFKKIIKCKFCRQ
# From the text: High affinity for the serotonin 5HT1A receptor was established by testing the claimed compound's ability to displace [^3H] 8-OH-DPAT (dipropylamino-tetralin) from the 5HT1A serotonin receptor following a modification of the procedure of Hall et al., J. Neurochem. 44, 1685 (1985) which utilizes CHO cells stably transfected with human 5HT1A receptors.
# [1] = molecular target: T3, cloned human 5HT1A receptors (Homo sapiens, UniProt P08908); experiment: 35S-GTPγS binding assay, 5HT1A antagonist activity; format: biochemical; details: for 5HT1A Function Imax: maximum inhibitory effect, vs 8-OH-DPAT, unit assumed; for IC50: reversal of 8-OH-DPAT (antagonist), read-out: 5HT1A Function IC50
# T3 construct: expressed in transfected cells
# T3 sequence (P08908 1-422): T2 sequence (P08908 1-422)
# Experimental: Antagonist activity at 5HT1A receptors was established by using a ^35S-GTPγS binding assay similar to that used by Lazareno and Birdsall (Br. J. Pharmacol. 109:1120, 1993), in which the test compound's ability to affect the binding of ^35S-GTPγS to membranes containing cloned human 5HT1A receptors was determined. Agonists produce an increase in binding whereas antagonists produce no increase but rather reverse the effects of the standard agonist 8-OH-DPAT. The test compound's maximum inhibitory effect is represented as the Imax, while its potency is defined by the IC50.
Structure (SMILES),"5-HT Transporter Affinity, % @ 1 μM (serotonin transporter)","5HT1A Receptor Affinity, % @ 1 μM (human 5HT1A receptors)",5HT1A Function Imax [1],IC50 [1],melting point,Ki (serotonin transporter),Ki (human 5HT1A receptors)
"COc1ccccc1N1CCN(C[C@H]2COc3ccc4nc(C)ccc4c3O2)CC1 [Example 4, (2S)-2-{[4-(2-methoxyphenyl)piperazin-1-yl]methyl}-8-methyl-2,3-dihydro[1,4]dioxino[2,3-f]quinoline]",34% @ 1 μM,95% @ 1 μM,87%,994 nM,44 to 47 °C,,
"COc1cccc(N2CCN(C[C@H]3COc4ccc5nc(C)ccc5c4O3)CC2)c1 [Example 5, (2S)-2-{[4-(3-methoxyphenyl)piperazin-1-yl]methyl}-8-methyl-2,3-dihydro[1,4]dioxino[2,3-f]quinoline]",,80% @ 1 μM,84%,1720 nM,90 to 91 °C,35.5 nM,
"COc1ccc(N2CCN(C[C@H]3COc4ccc5nc(C)ccc5c4O3)CC2)cc1 [Example 6, (2S)-2-{[4-(4-methoxyphenyl)piperazin-1-yl]methyl}-8-methyl-2,3-dihydro[1,4]dioxino[2,3-f]quinoline]",0% @ 1 μM,81% A1 μM,37%,3940 nM,164 to 165 °C,,
"Cc1ccc2c3c(ccc2n1)OC[C@H](CN1CCN(c2cccc(C(F)(F)F)c2)CC1)O3 [Example 8, (2S)-8-methyl-2-[4-(3-trifluoromethyl-phenyl)piperazin-1-ylmethyl]-2,3-dihydro[1,4]dioxine[2,3-f]quinoline]",,,100%,3110 nM,123 to 124 °C,21.6 nM,31.4 nM
"Cc1ccc2c3c(ccc2n1)OC[C@H](CN1CCN(c2ccc4ccccc4n2)C[C@@H]1C)O3 [Example 19, (2S)-8-methyl-2-{[(2S)-2-methyl-4-quinolin-2-ylpiperazin-1-yl]methyl}-2,3-dihydro[1,4]dioxino[2,3-f]quinoline]",,,90%,3000 nM,141 to 144 °C,123 nM,167 nM
"Cc1ccc2c3c(ccc2n1)OC[C@H](CN1CCN(c2ccc4cc(Br)ccc4n2)CC1)O3 [Example 27, (2S)-2-{[4-(6-Bromoquinolin-2-yl)piperazin-1-yl]methyl}-8-methyl-2,3-dihydro[1,4]dioxino[2,3-f]quinoline]",,,82%,2410 nM,153 to 154 °C,101 nM,17.1 nM

# These reach a lower IC50 [1]. Values come first.
"5-HT Transporter Affinity, % @ 1 μM (serotonin transporter)","5HT1A Receptor Affinity, % @ 1 μM (human 5HT1A receptors)",5HT1A Function Imax [1],IC50 [1],melting point,Ki (serotonin transporter),Ki (human 5HT1A receptors),Structure (SMILES)
,,98%,403 nM,112 to 113 °C,88.5 nM,82.5 nM,"Cc1ccc2c3c(ccc2n1)OC[C@H](CN1CCN(c2cccc(C)c2C)CC1)O3 [Example 10, (2S)-2-{[4-(2,3-dimethylphenyl)piperazin-1-yl]methyl}-8-methyl-2,3-dihydro[1,4]dioxino[2,3-f]quinoline]"
,,84%,345 nM,118 to 120 °C,85.5 nM,18.2 nM,"Cc1ccc2c3c(ccc2n1)OC[C@H](CN1CCN(c2ccc(C)c(C)c2)CC1)O3 [Example 11, (2S)-2-{[4-(3,4-dimethylphenyl)piperazin-1-yl]methyl}-8-methyl-2,3-dihydro[1,4]dioxino[2,3-f]quinoline]"
,,83.5%,867 nM,78 to 82 °C,32.8 nM,5.53 nM,"Cc1ccc2c3c(ccc2n1)OC[C@H](CN1CCN(c2ccc4ccccc4n2)C[C@H]1C)O3 [Example 21, (2S)-8-methyl-2-{[(2R)-2-methyl-4-quinolin-2-ylpiperazin-1-yl]methyl}-2,3-dihydro[1,4]dioxino[2,3-f]quinoline]"
